In brackets after ≈: the same amount, converted by molar mass.
Columns and labels:
Assay in all cases: In vitro antibacterial evaluation: minimum inhibitory concentration (MIC), broth dilution method
Type in all cases: cell-based
Escherichia coli = details: 18 hours at 35° C.
Summary of the method: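 NCCLS M7-A2 broth dilution with Mueller-Hinton II, testing 64-0.06 μg/mL antibiotic against 5×10^5 CFU/mL inocula. Test strains include recent methicillin-, penicillin- or vancomycin-resistant clinical isolates. MIC is the lowest concentration preventing growth.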

Enterococcus sp. = details: 18 hours at 35° C.
Summary of the method: (§1)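 An MIC is reported for each organism as the least concentration giving inhibition, using broth dilution over 64-0.06 μg/mL with a 5×10^5 CFU/mL inoculum.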

Staphylococcus sp. = details: for MIC Staphylococcus aureus (ATCC 29213): strain ATCC 29213; for MIC Staphylococcus aureus (GC 1131): strain GC 1131; for MIC Staphylococcus aureus (GC 3051): strain GC 3051; for MIC Staphylococcus aureus (GC 3053): strain GC 3053; for MIC Staphylococcus aureus (GC 4541): strain GC 4541; for MIC Staphylococcus aureus (GC 4542): strain GC 4542; for MIC Staphylococcus aureus-SMITH (GC 4543): strain GC 4543; for MIC Staphylococcus aureus (GC 4544): strain GC 4544; for MIC Staphylococcus aureus (GC 4545): strain GC 4545; for MIC Staphylococcus haemolyticus (GC 4546): strain GC 4546; for MIC Coagulase Negative Staphylococcus (GC 4547): strain GC 4547; for MIC Coagulase Negative Staphylococcus (GC 4548): strain GC 4548; for MIC Coagulase Negative Staphylococcus (GC 4549): strain GC 4549; for MIC Coagulase Negative Staphylococcus (GC 4551): strain GC 4551; for MIC Coagulase Negative Staphylococcus (GC 6257): strain GC 6257
Summary of the method: as §1

Streptococcus sp. = details: 18 hours at 35° C.
Summary of the method: as §1

[1] = Enterococcus faecalis (ATCC 29212)
[2] = Enterococcus faecalis (GC 2242)
[3] = Enterococcus faecalis (GC 2691)
[4] = Enterococcus faecalis (GC 3059)
[5] = Enterococcus faecalis (GC 4552)
[6] = Enterococcus faecalis (GC 4553)
[7] = Enterococcus faecalis (GC 4554)
[8] = Enterococcus faecalis (GC 6189)
[9] = broth dilution, inoculum 5×10^5 CFU/mL
[10] = Streptococcus agalactiae (GC 4564)
[11] = Streptococcus pneumoniae (ATCC 6301)
[12] = Streptococcus pneumoniae (GC 1894)
[13] = Streptococcus pneumoniae (GC 4565)
[14] = Streptococcus pyogenes (GC 4563)

## COc1ccc2cc(C3OCC4OC(OC5C(CO)OC(Oc6ccc(CC7NC(=O)C(C(C)c8ccccc8)NC(=O)CNC(=O)C(CO)NC(=O)C(CC8CNC(=N)N8C8OC(CO)C(O)C(O)C8O)NC(=O)C(CC8CNC(=N)N8)NC7=O)cc6)C(O)C5O)C(O)C(O)C4O3)ccc2c1 (centres unmarked) [Example 190]
Escherichia coli
  MIC Escherichia coli (ATCC 25922): >64 µg/mL
  MIC Escherichia coli (GC 4559): >64 µg/mL
  MIC Escherichia coli (GC 4560): 16 µg/mL (≈ 11.2 µM)
Enterococcus sp.; Enterococcus avium (GC 4558)
  MIC Enterococcus avium (GC 4558): 16 µg/mL (≈ 11.2 µM)
Enterococcus sp.; [1]
  MIC Enterococcus faecalis (ATCC 29212): 32 µg/mL (≈ 22.4 µM)
Enterococcus sp.; [2]
  MIC Enterococcus faecalis (GC 2242): 32 µg/mL (≈ 22.4 µM)
Enterococcus sp.; [3]
  MIC Enterococcus faecalis (GC 2691): 32 µg/mL (≈ 22.4 µM)
Enterococcus sp.; [4]
  MIC Enterococcus faecalis (GC 3059): 32 µg/mL (≈ 22.4 µM)
Enterococcus sp.; [5]
  MIC Enterococcus faecalis (GC 4552): 32 µg/mL (≈ 22.4 µM)
Enterococcus sp.; [6]
  MIC Enterococcus faecalis (GC 4553): 32 µg/mL (≈ 22.4 µM)
Enterococcus sp.; [7]
  MIC Enterococcus faecalis (GC 4554): 32 µg/mL (≈ 22.4 µM)
Enterococcus sp.; [8]
  MIC Enterococcus faecalis (GC 6189): 32 µg/mL (≈ 22.4 µM)
Enterococcus sp.; Enterococcus faecium (GC 2243)
  MIC Enterococcus faecium (GC 2243): 32 µg/mL (≈ 22.4 µM)
Enterococcus sp.; Enterococcus faecium (GC 4556)
  MIC Enterococcus faecium (GC 4556): 32 µg/mL (≈ 22.4 µM)
Enterococcus sp.; Enterococcus faecium (GC 4557)
  MIC Enterococcus faecium (GC 4557): 8 µg/mL (≈ 5.59 µM)
Enterococcus sp.; [9]
  MIC Enterococcus avium (GC 4558): 16 µg/mL (≈ 11.2 µM)
  MIC Enterococcus faecalis (ATCC 29212): 32 µg/mL (≈ 22.4 µM)
  MIC Enterococcus faecalis (GC 2242): 32 µg/mL (≈ 22.4 µM)
  MIC Enterococcus faecalis (GC 2691): 32 µg/mL (≈ 22.4 µM)
  MIC Enterococcus faecalis (GC 3059): 32 µg/mL (≈ 22.4 µM)
  MIC Enterococcus faecalis (GC 4552): 32 µg/mL (≈ 22.4 µM)
  MIC Enterococcus faecalis (GC 4553): 32 µg/mL (≈ 22.4 µM)
  MIC Enterococcus faecalis (GC 4554): 32 µg/mL (≈ 22.4 µM)
  MIC Enterococcus faecalis (GC 6189): 32 µg/mL (≈ 22.4 µM)
  MIC Enterococcus faecium (GC 2243): 32 µg/mL (≈ 22.4 µM)
  MIC Enterococcus faecium (GC 4556): 32 µg/mL (≈ 22.4 µM)
  MIC Enterococcus faecium (GC 4557): 8 µg/mL (≈ 5.59 µM)
Staphylococcus sp.
  MIC Staphylococcus aureus (ATCC 29213): 16 µg/mL (≈ 11.2 µM)
  MIC Staphylococcus aureus (GC 1131): 16 µg/mL (≈ 11.2 µM)
  MIC Staphylococcus aureus (GC 3051): 16 µg/mL (≈ 11.2 µM)
  MIC Staphylococcus aureus (GC 3053): 16 µg/mL (≈ 11.2 µM)
  MIC Staphylococcus aureus (GC 4541): 8 µg/mL (≈ 5.59 µM)
  MIC Staphylococcus aureus (GC 4542): 4 µg/mL (≈ 2.79 µM)
  MIC Staphylococcus aureus-SMITH (GC 4543): 4 µg/mL (≈ 2.79 µM)
  MIC Staphylococcus aureus (GC 4544): 16 µg/mL (≈ 11.2 µM)
  MIC Staphylococcus aureus (GC 4545): 16 µg/mL (≈ 11.2 µM)
  MIC Staphylococcus haemolyticus (GC 4546): 8 µg/mL (≈ 5.59 µM)
  MIC Coagulase Negative Staphylococcus (GC 4547): 8 µg/mL (≈ 5.59 µM)
  MIC Coagulase Negative Staphylococcus (GC 4548): 8 µg/mL (≈ 5.59 µM)
  MIC Coagulase Negative Staphylococcus (GC 4549): 8 µg/mL (≈ 5.59 µM)
  MIC Coagulase Negative Staphylococcus (GC 4551): 16 µg/mL (≈ 11.2 µM)
  MIC Coagulase Negative Staphylococcus (GC 6257): 8 µg/mL (≈ 5.59 µM)
Streptococcus sp.; [10]
  MIC Streptococcus agalactiae (GC 4564): 16 µg/mL (≈ 11.2 µM)
Streptococcus sp.; [11]
  MIC Streptococcus pneumoniae (ATCC 6301): 8 µg/mL (≈ 5.59 µM)
Streptococcus sp.; [12]
  MIC Streptococcus pneumoniae (GC 1894): 4 µg/mL (≈ 2.79 µM)
Streptococcus sp.; [13]
  MIC Streptococcus pneumoniae (GC 4565): 8 µg/mL (≈ 5.59 µM)
Streptococcus sp.; [14]
  MIC Streptococcus pyogenes (GC 4563): 16 µg/mL (≈ 11.2 µM)
Streptococcus sp.; [9]
  MIC Streptococcus agalactiae (GC 4564): 16 µg/mL (≈ 11.2 µM)
  MIC Streptococcus pneumoniae (ATCC 6301): 8 µg/mL (≈ 5.59 µM)
  MIC Streptococcus pneumoniae (GC 1894): 4 µg/mL (≈ 2.79 µM)
  MIC Streptococcus pneumoniae (GC 4565): 8 µg/mL (≈ 5.59 µM)
  MIC Streptococcus pyogenes (GC 4563): 16 µg/mL (≈ 11.2 µM)

## CC(c1ccccc1)C1NC(=O)CNC(=O)C(CO)NC(=O)C(CC2CNC(=N)N2C2OC(CO)C(O)C(O)C2O)NC(=O)C(CC2CNC(=N)N2)NC(=O)C(Cc2ccc(OC3OC(CO)C(OC4OC5COC(c6ccc(OCc7ccccc7)cc6)OC5C(O)C4O)C(O)C3O)cc2)NC1=O (centres unmarked) [Example 191]
Escherichia coli
  MIC Escherichia coli (ATCC 25922): 64 µg/mL (≈ 43.9 µM)
  MIC Escherichia coli (GC 4559): 64 µg/mL (≈ 43.9 µM)
  MIC Escherichia coli (GC 4560): 8 µg/mL (≈ 5.49 µM)
Enterococcus sp.; Enterococcus avium (GC 4558)
  MIC Enterococcus avium (GC 4558): 4 µg/mL (≈ 2.74 µM)
Enterococcus sp.; [1]
  MIC Enterococcus faecalis (ATCC 29212): 16 µg/mL (≈ 11 µM)
Enterococcus sp.; [2]
  MIC Enterococcus faecalis (GC 2242): 8 µg/mL (≈ 5.49 µM)
Enterococcus sp.; [3]
  MIC Enterococcus faecalis (GC 2691): 8 µg/mL (≈ 5.49 µM)
Enterococcus sp.; [4]
  MIC Enterococcus faecalis (GC 3059): 8 µg/mL (≈ 5.49 µM)
Enterococcus sp.; [5]
  MIC Enterococcus faecalis (GC 4552): 16 µg/mL (≈ 11 µM)
Enterococcus sp.; [6]
  MIC Enterococcus faecalis (GC 4553): 8 µg/mL (≈ 5.49 µM)
Enterococcus sp.; [7]
  MIC Enterococcus faecalis (GC 4554): 16 µg/mL (≈ 11 µM)
Enterococcus sp.; [8]
  MIC Enterococcus faecalis (GC 6189): 8 µg/mL (≈ 5.49 µM)
Enterococcus sp.; Enterococcus faecium (GC 2243)
  MIC Enterococcus faecium (GC 2243): 8 µg/mL (≈ 5.49 µM)
Enterococcus sp.; Enterococcus faecium (GC 4556)
  MIC Enterococcus faecium (GC 4556): 8 µg/mL (≈ 5.49 µM)
Enterococcus sp.; Enterococcus faecium (GC 4557)
  MIC Enterococcus faecium (GC 4557): 4 µg/mL (≈ 2.74 µM)
Enterococcus sp.; [9]
  MIC Enterococcus avium (GC 4558): 4 µg/mL (≈ 2.74 µM)
  MIC Enterococcus faecalis (ATCC 29212): 16 µg/mL (≈ 11 µM)
  MIC Enterococcus faecalis (GC 2242): 8 µg/mL (≈ 5.49 µM)
  MIC Enterococcus faecalis (GC 2691): 8 µg/mL (≈ 5.49 µM)
  MIC Enterococcus faecalis (GC 3059): 8 µg/mL (≈ 5.49 µM)
  MIC Enterococcus faecalis (GC 4552): 16 µg/mL (≈ 11 µM)
  MIC Enterococcus faecalis (GC 4553): 8 µg/mL (≈ 5.49 µM)
  MIC Enterococcus faecalis (GC 4554): 16 µg/mL (≈ 11 µM)
  MIC Enterococcus faecalis (GC 6189): 8 µg/mL (≈ 5.49 µM)
  MIC Enterococcus faecium (GC 2243): 8 µg/mL (≈ 5.49 µM)
  MIC Enterococcus faecium (GC 4556): 8 µg/mL (≈ 5.49 µM)
  MIC Enterococcus faecium (GC 4557): 4 µg/mL (≈ 2.74 µM)
Staphylococcus sp.
  MIC Staphylococcus aureus (ATCC 29213): 4 µg/mL (≈ 2.74 µM)
  MIC Staphylococcus aureus (GC 1131): 8 µg/mL (≈ 5.49 µM)
  MIC Staphylococcus aureus (GC 3051): 8 µg/mL (≈ 5.49 µM)
  MIC Staphylococcus aureus (GC 3053): 8 µg/mL (≈ 5.49 µM)
  MIC Staphylococcus aureus (GC 4541): 4 µg/mL (≈ 2.74 µM)
  MIC Staphylococcus aureus (GC 4542): 4 µg/mL (≈ 2.74 µM)
  MIC Staphylococcus aureus-SMITH (GC 4543): 4 µg/mL (≈ 2.74 µM)
  MIC Staphylococcus aureus (GC 4544): 8 µg/mL (≈ 5.49 µM)
  MIC Staphylococcus aureus (GC 4545): 4 µg/mL (≈ 2.74 µM)
  MIC Staphylococcus haemolyticus (GC 4546): 4 µg/mL (≈ 2.74 µM)
  MIC Coagulase Negative Staphylococcus (GC 4547): 8 µg/mL (≈ 5.49 µM)
  MIC Coagulase Negative Staphylococcus (GC 4548): 4 µg/mL (≈ 2.74 µM)
  MIC Coagulase Negative Staphylococcus (GC 4549): 4 µg/mL (≈ 2.74 µM)
  MIC Coagulase Negative Staphylococcus (GC 4551): 4 µg/mL (≈ 2.74 µM)
  MIC Coagulase Negative Staphylococcus (GC 6257): 4 µg/mL (≈ 2.74 µM)
Streptococcus sp.; [10]
  MIC Streptococcus agalactiae (GC 4564): 2 µg/mL (≈ 1.37 µM)
Streptococcus sp.; [11]
  MIC Streptococcus pneumoniae (ATCC 6301): 1 µg/mL (≈ 0.686 µM)
Streptococcus sp.; [12]
  MIC Streptococcus pneumoniae (GC 1894): 0.25 µg/mL (≈ 0.172 µM)
Streptococcus sp.; [13]
  MIC Streptococcus pneumoniae (GC 4565): 2 µg/mL (≈ 1.37 µM)
Streptococcus sp.; [14]
  MIC Streptococcus pyogenes (GC 4563): 2 µg/mL (≈ 1.37 µM)
Streptococcus sp.; [9]
  MIC Streptococcus agalactiae (GC 4564): 2 µg/mL (≈ 1.37 µM)
  MIC Streptococcus pneumoniae (ATCC 6301): 1 µg/mL (≈ 0.686 µM)
  MIC Streptococcus pneumoniae (GC 1894): 0.25 µg/mL (≈ 0.172 µM)
  MIC Streptococcus pneumoniae (GC 4565): 2 µg/mL (≈ 1.37 µM)
  MIC Streptococcus pyogenes (GC 4563): 2 µg/mL (≈ 1.37 µM)

Source: patent US8247211B2, “Glycopeptide antibiotics” (American Cyanamid Company, priority 2001, dated 2012)
